Laboratory results from patent publication US6809091B1, “Substances capable of inducing apoptosis” (Takara Bio Inc., priority 1998, dated 2004).

What was measured:
HL-60 cells = assay: analysis of fragmentation of DNA; assay type: cell-based, human
Method: (2) HL-60 cells which were incubated on an RPMI 1640 medium containing 10% of fetal bovine serum processed at 56° C. for 30 minutes were suspended in an RPMI 1640 medium to make 2.5×10^5 cells/5 ml.
To 5 ml the suspension were added 10 μl of 12.5 mM, 25 mM, 50 mM or 100 mM of a 70% ethanolic solution of 4,5-dihydroxy-2-pentenal, 0.05 mM, 0.5 mM, 5 mM or 50 mM of a 70% ethanolic solution of 4-hydroxy-2-cyclopenten-1-one, 5 mM, 10 mM or 20 mM of a 70% ethanolic solution of 4-(9-adeninyl)-2-cyclopenten-1-one prepared in Example 4-(4), 2.5 mM, 5 mM, 15 mM or 25 mM of a 70% ethanolic solution of 4-(9-guaninyl)-2-cyclopenten-1-one prepared in Example 4-(5) 75 mM, 150 mM or 300 mM of a 70% ethanolic solution of 1,5-epoxy-1-hydroxy-3-penten-2-one prepared in Example 5-(2) or 5 mM, 25 mM or 50 mM of a 70% ethanolic solution of 2-(trans-3,4-dihydroxy-1-butenyl)-4-(trans-2-formylvinyl)-1,3-dioxolane prepared in Example 6-(2) followed by incubating at 37° C. in the presence of 5% of carbon dioxide gas for 24 hours and 48 hours and the resulting cells were subjected to a measurement of apoptosis cells using FACScan by a method mentioned in pages 129-130 of “Experimental Protocol Series—Apoptosis Experiment Protocol” which was an extra issue of “Saibo Kogaku (Cell Technology)” (published by Shujunsha in 1994) and also to a measurement of analysis of fragmentation of DNA by a method mentioned in page 61-63 of “Biomanual UP Series—New Experimental Methods for Apoptosis” (published by Yodosha in 1995).

human IL-10 = assay: cytokine production in DSEK cells, ELISA; assay type: cell-based; details: DSEK cell incubation, supernatant every 24 hours
Method: (§1) Now, in the DSEK cell incubation, 150 μl/well of the supernatant liquid of the medium were recovered every 24 hours and influence of 4-hydroxy-2-cyclopenten-1-one or 4,5-dihydroxy-2-pentenal on the production of cytokines (human TGF-β, human FGF-β, human IL-1α and human IL-10) was measured using an ELISA-kit specific to each of the cytokine (the kit manufactured by INTERGEN or human FGF-β and human IL-10; and the kit manufactured by Promega for human IL-1α and human TGF-β).

[1] = test system: heat shock protein of 70 kDa in HL-60; assay: induction of heat shock protein of 70 kDa, SDS-PAGE and blotting; assay type: cell-based, human; set-up: key: “−” means no induction; “±” means a little induction; “+” shows the intensity of induction and the more the “+”, the more the induction; ++: “+” shows the intensity of induction and the more the “+”, the more the induction; +++: “+” shows the intensity of induction and the more the “+”, the more the induction; details: six hours
Method: Each 5 ml of an RPMI 1640 medium containing 10% of FBS containing 2×10^5 cells/ml of HL-60 (ATCC CCL-240) were placed in each well of a six-well plate, incubated at 37° C. for 24 hours in the presence of 5% CO2, then 4,5-dihydroxy-2-pentenal was added to make the final concentration 0, 12.5, 25, 50 or 100 μM or 4-hydroxy-2-cyclopenten-1-one was added to make the final concentration 0, 2.5, 5, 10, 20, 40 or 80 μM and the mixture was incubated for six hours more.
After completion of the incubation, cell numbers were counted and then the cells were recovered by centrifugation and washed with PBS to prepare the cells treated with each of the samples. In addition, cells which were heated at 45° C. for five minutes followed by subjecting to the same incubation were prepared as well.
The cells treated as such were then subjected to an SDS-PAGE according to a method mentioned in “Molecular Cloning” (Cold Spring Harbor Laboratory Press, 1989). Thus, the cells were suspended in an SDS-PAGE sample buffer to make the concentration 2.5×10^6 cells/ml, the resulting cell suspension was treated at 100° C. for ten minutes, each 5 μl thereof were applied to two sheets of SDS-PAGE gel (a 5% stacking gel and a 10% separation gel) and an electrophoresis was carried out. One of the gels was stained with Coomassie while another was subjected to a blotting to polyvinylidene difluoride transfer membrane (Immobilon™ manufactured by MILLIPORE; catalog no. IPVH000-10). This membrane was subjected to a blocking overnight at 4° C. using Block Ace (manufactured by Dainippon Pharmaceutical; catalog no. UK-B25).
The membrane which was subjected to a blocking as such was made to react with monoclonal antibody HSP 72/73 (Ab-1) (manufactured by Oncogene Research Products; catalog no. HSP01) which specifically reacted with heat-induced heat shock protein of 70 kDa, washed with TBS containing 0.05% Tween 20 and further washed with TBS. After that, it was made to react with peroxidase-compounded secondary antibody HRP-Rabbit Anti Mouse IgG (H+L) (manufactured by ZYMED Laboratories; catalog no. 61-6520) and washed as same as in the previous operation. The membrane which was made to react with the primary antibody and the secondary antibody as such was made to react with RENAISSANCE™ (a chemiluminol reagent manufactured by Dupont NEN, catalog no. NEL-100) and then exposed to X-ray film to confirm the induction of the heat shock protein of 70 kDa.

mice = assay: acute toxicity, single oral administration; assay type: in vivo; details: single oral administration of 100 mg/kg
Method: When a physiologically active effective dose of the heat-treated product of the present invention and partially purified product thereof and the compound of the present invention are/is administered to mice, no acute toxicity is noted.

[2] = test system: heat shock protein of 70 kDa in HL-60; assay: induction of heat shock protein of 70 kDa, SDS-PAGE and blotting; assay type: cell-based, human; set-up: key: “−” means no induction; “±” means a little induction; “+” shows the intensity of induction and the more the “+”, the more the induction; ++: “+” shows the intensity of induction and the more the “+”, the more the induction; +++: “+” shows the intensity of induction and the more the “+”, the more the induction; details: six hours; remark: listed apart in the source
human TGF-β = assay: cytokine production in DSEK cells, ELISA; assay type: cell-based; details: DSEK cell incubation, supernatant every 24 hours
Method: as §1

| Structure (SMILES) | fragmentation of DNA (HL-60 cells; HL-60, 50 μM final concentration) | fragmentation of DNA (HL-60 cells; HL-60, 100 μM final concentration) | fragmentation of DNA (HL-60 cells; HL-60, 200 μM final concentration) | production of human IL-10 (human IL-10) | intensity of induction of heat shock protein of 70 kDa ([1]; HL-60, 25 μM) | intensity of induction of heat shock protein of 70 kDa ([1]; HL-60, 50 μM) | intensity of induction of heat shock protein of 70 kDa ([1]; HL-60, 100 μM) | death (mice) | intensity of induction of heat shock protein of 70 kDa ([2]; HL-60, 1.25 μM) | production of human TGF-β (human TGF-β) | fragmentation of DNA (HL-60 cells; HL-60, 10 μM final concentration) | intensity of induction of heat shock protein of 70 kDa ([1]; HL-60, 5 μM) | intensity of induction of heat shock protein of 70 kDa ([1]; HL-60, 20 μM) | intensity of induction of heat shock protein of 70 kDa ([1]; HL-60, 40 μM) | intensity of induction of heat shock protein of 70 kDa ([1]; HL-60, 80 μM) | intensity of induction of heat shock protein of 70 kDa ([2]; HL-60, 2.5 μM) | intensity of induction of heat shock protein of 70 kDa ([2]; HL-60, 10 μM) |
| --- | --- | --- | --- | --- | --- | --- | --- | --- | --- | --- | --- | --- | --- | --- | --- | --- | --- |
| O=CC=CC(O)CO (single isomer, unassigned) [4,5-dihydroxy-2-pentenal, trans-4,5-dihydroxy-2-pentenal] | confirmed | confirmed | confirmed | activated | ± | +++ | − | no case of death | − |  |  |  |  |  |  |  |  |
| Nc1nc2c(ncn2C2C=CC(=O)C2)c(=O)[nH]1 (stereo not drawn) [4-(9-guaninyl)-2-cyclopenten-1-one] |  |  |  |  |  |  |  |  |  | inhibited |  |  |  |  |  |  |  |
| O=C1C=CC(O)C1 (stereo not drawn) [4-hydroxy-2-cyclopenten-1-one] |  |  |  |  |  |  |  | no case of death |  |  | confirmed | ± | +++ | ++ | ± | − | + |
